Source: publication PMC8583782, “Screening for the Active Anti-Inflammatory and Antioxidant Polyphenols of Gaultheria procumbens and Their Application for Standardisation: From Identification through Cellular Studies to Quantitative Determination” (International Journal of Molecular Sciences, 2021)

target: T1, HYAL (bovine testis hyaluronidase) (Bos taurus, UniProt Q2YDK3); test: hyaluronidase inhibition assay; format: biochemical; details: positive control; read-out: Anti-Inflammatory Activity / HYAL / IC50 (μM) ^a
T1 construct: gene SPAM1; commercial native preparation from bovine testis (Merck)
T1 sequence (Q2YDK3 36-553): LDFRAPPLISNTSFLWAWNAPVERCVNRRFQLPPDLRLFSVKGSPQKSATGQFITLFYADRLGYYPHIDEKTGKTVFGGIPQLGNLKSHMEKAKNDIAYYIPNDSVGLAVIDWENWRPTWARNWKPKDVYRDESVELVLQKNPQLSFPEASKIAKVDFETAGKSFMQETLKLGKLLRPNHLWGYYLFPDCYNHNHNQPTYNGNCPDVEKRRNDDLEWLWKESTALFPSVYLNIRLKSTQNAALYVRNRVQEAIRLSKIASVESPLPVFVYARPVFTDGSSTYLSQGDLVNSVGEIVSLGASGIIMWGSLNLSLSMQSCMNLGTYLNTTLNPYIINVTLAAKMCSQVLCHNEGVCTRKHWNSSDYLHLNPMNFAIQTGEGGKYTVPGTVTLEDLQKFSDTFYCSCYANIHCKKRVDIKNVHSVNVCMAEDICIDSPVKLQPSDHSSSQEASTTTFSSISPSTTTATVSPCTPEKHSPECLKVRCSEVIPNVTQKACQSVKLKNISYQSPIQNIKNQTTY
Text: hyaluronidase inhibition assay on HYAL (bovine testis hyaluronidase)

In order of rising IC50:
1. COc1ccc2c(c1)c(CC(=O)O)c(C)n2C(=O)c1ccc(Cl)cc1 [IND, indomethacin, reference compound]  35.7 ± 5.34 µM
2. C[C@@H]1C[C@H]2[C@@H]3CCC4=CC(=O)C=C[C@]4(C)[C@@]3(F)[C@@H](O)C[C@]2(C)[C@@]1(O)C(=O)CO [DEX, dexamethasone, reference compound]  36.1 ± 2.68 µM

same assay, conditions: tested at […]; read-out: Anti-Inflammatory Activity / HYAL / IC50 (μM) ^a

In order of rising IC50:
1. Oc1cc(O)c2c(c1)O[C@H](c1ccc(O)c(O)c1)[C@H](O)[C@H]2c1c(O)cc(O)c2c1O[C@H](c1ccc(O)c(O)c1)[C@H](O)C2 [PB2, epicatechin-(4β→8)-epicatechin]  37.4 ± 1.78 µM
2. COC(=O)c1ccccc1O[C@@H]1O[C@H](CO[C@@H]2OC[C@@H](O)[C@H](O)[C@H]2O)[C@@H](O)[C@H](O)[C@H]1O [GT, methyl salicylate 2-O-β-D-xylopyranosyl-(1→6)-β-D-glucuronopyranoside]  64 ± 2.87 µM
3. O=C(/C=C/c1ccc(O)c(O)c1)O[C@@H]1C[C@](O)(C(=O)O)C[C@@H](O)[C@H]1O [CHA, 5-O-caffeoylquinic acid]  80.7 ± 3.42 µM
4. Oc1cc(O)c2c(c1)O[C@H](c1ccc(O)c(O)c1)[C@H](O)C2 [ECA, (−)-epicatechin]  81.9 ± 3.96 µM
5. O=C(O)[C@H]1O[C@@H](Oc2c(-c3ccc(O)c(O)c3)oc3cc(O)cc(O)c3c2=O)[C@H](O[C@@H]2OC[C@@H](O)[C@H](O)[C@H]2O)[C@@H](O)[C@@H]1O [DGQ, quercetin 3-O-β-D-xylopyranosyl-(1→2)-β-D-glucuronopyranoside]  98.1 ± 2.31 µM
6. O=C(O)[C@H]1O[C@@H](Oc2c(-c3ccc(O)c(O)c3)oc3cc(O)cc(O)c3c2=O)[C@H](O)[C@@H](O)[C@@H]1O [MQ, quercetin 3-O-β-D-glucuronopyranoside]  98.2 ± 4.41 µM
7. O=c1c(O)c(-c2ccc(O)c(O)c2)oc2cc(O)cc(O)c12 [QU, quercetin]  102 ± 6.09 µM
